Experimental data as given in patent publication US8840915B2, “Pharmaceutical compositions for sustained release delivery of peptides” (Foresec Pharmaceuticals, LLC, priority 2006, dated 2014).
Blank lines part the entries; values can stand above or below the molecule they belong to.

Assays:
[1] = in vivo; cited from earlier work
[2] = In vitro release of lysozyme and palmitoylated lysozyme from injectable polymer solution (RG503H in mPEG350); assay type: physicochemical; conditions: about 7% in 40% PLGA RG503H in mPEG350; PBS pH 7.4, 37° C.; UV 280 nm
Description: (§1) 40% PLGA RG503H was prepared by appropriately dissolving the polymer in mPEG350. Then Palmitoyl-Lysozyme and lysozyme were mixed with the polymer solution at about 7% respectively. The formulations were thoroughly mixed to obtain uniform formulations.
In vitro release of lysozyme and palmitoylated lysozyme from injectable polymer solution. The formulation suspensions (about 100 mg) were injected into in 3 mL phosphate buffer saline solution at pH 7.4 with 0.1% sodium azide at 37° C. The receiving fluid was replaced at selected time points with fresh buffer solution, and the removed buffer solution was diluted appropriately with PB at pH 7.4 and analyzed for drug concentration by UV spectrophotometer at 280 nm against standard curves.

[3] = In vitro release of ghrelin and deacylated ghrelin from formulations in RG503H solution in mPEG350; assay type: physicochemical; conditions: about 6% in 40% PLGA RG503H in mPEG350; PBS pH 7.4, 37° C.; two week period; HPLC
Description: as §1, with “ghrelin (Human, Rat 1-5)” for “Palmitoyl-Lysozyme”, “deacylated ghrelin (Des-n-Octanoyl-[Ser]^3-ghrelin (Human, Rat 1-5))” for “lysozyme”, “6%” for “7%”
The formulation suspensions (about 100 mg) were injected into in 3 mL phosphate buffer saline solution at pH 7.4 with 0.1% sodium azide at 37° C. The receiving fluid was replaced at selected time points with fresh buffer solution, and the removed buffer solution was diluted appropriately with PB at pH 7.4 and was analyzed for drug concentration by HPLC using corresponding standard curves.

[4] = within 24 hours; 50/50 poly(DL-lactide-co-glycolide) having a carboxy terminal group, solution in NMP; cited from earlier work
[5] = Stability of the peptides in liquid polymeric formulations (purity by HPLC, room temperature); assay type: physicochemical; conditions: for Stability of the peptides in liquid polymeric formulations: 6% drug load in 50% DLPLG85/15 in NMP, room temperature, purity by HPLC
Description: (§2) Poly(DL-lactide-co-glycolide) (PLGA) of an 85/15 ratio of lactide to glycolide having a polydispersity of 1.5 (DLPLG85/15, IV: 0.28) was dissolved in N-methyl-2-pyrrolidone (NMP) to obtain a 50% solution by weight.
(§3) An aliquot from each formulation was taken for in vitro release in phosphate buffer at pH 7.4 containing 0.1% sodium azide at 37° C. and the remaining formulation was used to monitor the stability of the peptides and the polymer at room temperature over time. The time points are 0.125, 1, 2, 5, 7, 14, 21, and 28 days. Purity of the peptides in the sample was determined by HPLC. Molecular weight of the polymer was determined by gel permeation chromatography (GPC) using polystyrene standards with known molecular weights.
(§4) According to prior art, the presence of a nucleophilic group on a peptide can lead to an interaction between the peptide and the biodegradable polymer of a composition. The nucleophilic groups on the peptide can react with the biodegradable polymer to form acylated products and can catalyze the degradation of the biodegradable polymer. It is well known that when octreotide and poly(DL-lactide-co-glycolide) are combined, especially in an organic solution such as NMP, the octreotide will be acylated and the polymer will be degraded rapidly. The N-terminal conjugation of the octreotide in the present invention contains one primary amine, one secondary amine and one C-terminal carboxylic acid group and is expected to interact and/or react with the polymer similarly to the octreotide itself. […] However, the covalently conjugated octreotide was stable even after 56 days under the same condition. […] After 21 days, the molecular weight of the polymer was reduced by 50%. However, for the polymer in the formulation containing covalently conjugated octreotide, more than 90% of the original molecular weight was retained.

[6] = Stability of the polymer in liquid polymeric formulations (molecular weight by GPC, room temperature); assay type: physicochemical; conditions: formulation containing the peptide; for Stability of the polymer in liquid polymeric formulations: polymer molecular weight by GPC, room temperature
Description: as §2, §3, §4

[7] = In vitro release of octreotide and Pal-PEG-BA-OCT from formulation in DLPLG85/15 solution in NMP; degradation/acylation by HPLC; assay type: physicochemical
Description: as §2, §3
And more than 50% of the octreotide detected in the releasing medium was degraded or acylated after 28 days. After 28 days, the polymer matrix was dissolved in acetonitrile, and the polymer was precipitated using water. The octreotide was analyzed by HPLC. […] It would be highly advantageous to prevent such interaction between the peptide and the polymer.

Molecule: Detemir
circulation half-life [1]: 10.2 ± 1.2 h

Molecule: native lysozyme: Lysozyme (Mw 14,500), unmodified
initial in vitro release [2]: significant release initially

Molecule: Des-n-Octanoyl-[Ser]^3-ghrelin (Human, Rat 1-5) [deacylated ghrelin]
in vitro release rate [3]: much faster release

Molecule: C[C@@H](O)[C@@H]1NC(=O)[C@H](CCCCN)NC(=O)[C@@H](Cc2c[nH]c3ccccc23)NC(=O)[C@H](Cc2ccccc2)NC(=O)[C@@H](NC(=O)[C@H](N)Cc2ccccc2)CSSC[C@@H](C(=O)N[C@H](CO)[C@@H](C)O)NC1=O [octreotide acetate]
octreotide acylated and/or degraded [4]: more than 80%

in vitro release rate [3]: much slower release rate
Molecule: ghrelin (Human, Rat 1-5)

Molecule: C[C@@H](O)[C@@H]1NC(=O)[C@H](CCCCN)NC(=O)[C@@H](Cc2c[nH]c3ccccc23)NC(=O)[C@H](Cc2ccccc2)NC(=O)[C@@H](NC(=O)[C@H](N)Cc2ccccc2)CSSC[C@@H](C(=O)N[C@H](CO)[C@@H](C)O)NC1=O [Octreotide, octreotide]
Stability of the peptides in liquid polymeric formulations ([5]; Day 7): 2.3 | Stability of the peptides in liquid polymeric formulations ([5]; Day 14): 0.6 | Stability of the peptides in liquid polymeric formulations ([5]; Day 21): 0.3 | Stability of the peptides in liquid polymeric formulations ([5]; Day 56): 0.0 | reaction of the peptide with the polymer ([5]; after 7 days at room temperature, poly(DL-lactide-co-glycolide) solution in NMP): almost completely reacted | peptide acylated ([5]; within 24 hours at room temperature, poly(DL-lactide-co-glycolide) solution in NMP): more than 80% | Stability of the polymer in liquid polymeric formulations ([6]; Day 0): 100 | Stability of the polymer in liquid polymeric formulations ([6]; Day 0.1): 95.8 | Stability of the polymer in liquid polymeric formulations ([6]; Day 1): 75.3 | Stability of the polymer in liquid polymeric formulations ([6]; Day 2): 66.1 | Stability of the polymer in liquid polymeric formulations ([6]; Day 3): 65.3 | Stability of the polymer in liquid polymeric formulations ([6]; Day 7): 59.0 | Stability of the polymer in liquid polymeric formulations ([6]; Day 14): 57.1 | Stability of the polymer in liquid polymeric formulations ([6]; Day 21): 51.3 | molecular weight of the polymer reduced by ([6]; after 21 days at room temperature): 50% | peptide remaining in the polymer matrix acylated ([7]; after 28 days of in vitro release, matrix dissolved in acetonitrile, HPLC): more than 50% | peptide detected in the releasing medium degraded or acylated ([7]; after 28 days, phosphate buffer pH 7.4, 0.1% sodium azide, 37° C.): more than 50% | peptide detected in the releasing medium degraded or reacted with the polymer ([7]; within 3 hours, phosphate buffer pH 7.4, 0.1% sodium azide, 37° C.): about 30%
